Molecular target: T1, MER (Homo sapiens, UniProt Q12866)
T1 sequence (Q12866 21-999): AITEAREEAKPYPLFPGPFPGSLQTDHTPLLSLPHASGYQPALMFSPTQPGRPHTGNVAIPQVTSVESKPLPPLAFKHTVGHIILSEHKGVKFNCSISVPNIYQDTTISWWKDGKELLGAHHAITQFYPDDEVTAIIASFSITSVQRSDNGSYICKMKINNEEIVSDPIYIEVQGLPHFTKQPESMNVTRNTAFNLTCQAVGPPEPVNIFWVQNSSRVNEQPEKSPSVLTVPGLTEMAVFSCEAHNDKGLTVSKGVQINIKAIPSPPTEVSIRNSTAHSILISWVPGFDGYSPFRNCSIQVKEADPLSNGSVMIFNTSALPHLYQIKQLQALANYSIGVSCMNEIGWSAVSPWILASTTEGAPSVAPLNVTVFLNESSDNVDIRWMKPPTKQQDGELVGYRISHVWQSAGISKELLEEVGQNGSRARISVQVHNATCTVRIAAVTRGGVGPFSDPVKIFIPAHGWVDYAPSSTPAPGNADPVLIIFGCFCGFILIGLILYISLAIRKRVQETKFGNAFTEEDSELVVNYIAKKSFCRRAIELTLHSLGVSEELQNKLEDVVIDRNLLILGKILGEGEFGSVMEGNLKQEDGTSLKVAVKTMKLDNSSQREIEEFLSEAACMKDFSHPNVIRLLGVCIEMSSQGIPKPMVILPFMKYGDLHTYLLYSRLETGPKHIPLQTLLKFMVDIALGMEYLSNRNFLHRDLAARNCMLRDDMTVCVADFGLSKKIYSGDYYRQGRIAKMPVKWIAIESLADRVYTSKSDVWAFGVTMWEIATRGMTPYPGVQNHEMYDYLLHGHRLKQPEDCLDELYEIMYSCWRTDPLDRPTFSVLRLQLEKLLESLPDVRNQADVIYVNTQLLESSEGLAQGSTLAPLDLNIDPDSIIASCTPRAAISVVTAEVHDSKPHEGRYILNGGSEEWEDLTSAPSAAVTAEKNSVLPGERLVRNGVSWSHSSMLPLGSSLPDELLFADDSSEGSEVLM
Assay: Inhibition of MER kinase activity in primary macrophages (Western blot)
Format: cell-based
Conditions: primary macrophages from human PBMCs, 2 hours pretreatment, MAB8912 stimulation, N=2 (FIG. 4); read-out: IC50, pMER inhibition
Description: The ability of Compound 1 to modulate the activity of MER kinase in macrophages was evaluated.
Human peripheral blood mononuclear cells (PBMCs) were separated using Ficoll-Paque density gradient centrifugation and any remaining red blood cells (RBC) were lysed using 1×RBC Lysis Buffer (Cell Signaling Technology) for 5 minutes at room temperature. The PBMCs were washed with PBS before being enriched for monocytes using CD14 microbeads positive selection separation following the manufacturer's protocol as specified (AutoMacs Pro, Miltenyi Biotec, Bergisch Gladbach, Germany). […]
Macrophages were allowed to thaw on ice before being lysed with 250 μL/well of 1× Lysis Buffer (Cell Signaling Technology; #9803) and Halt protease and phosphatase inhibitors (ThermoFisher Scientific) for 1 hour at 4° C. […] Protein lysates were quantified using BCA Protein Assay Kit (Pierce, ThermoFisher Scientific; #23225). […] The membranes were washed again before the bands were detected with SuperSignal West Dura Extended Duration Chemiluminescent substrate (ThermoFisher Scientific) and were visualized using the Fluorochem M Digital Imager (Protein Simple, San Jose, Calif.).

Question: For `CC(C)C(=O)N1CCC(c2cc(-c3ccc(NC(=O)c4cn(C(C)C)c(=O)n(-c5ccccn5)c4=O)cc3)c3c(N)ncnn23)CC1` [Compound 1, N-(4-(4-Amino-7-(1-isobutyrylpiperidin-4-yl)pyrrolo[1,2-f][1,2,4]triazin-5-yl)phenyl)-1-isopropyl-2,4-dioxo-3-(pyridin-2-yl)-1,2,3,4-tetrahydropyrimidine-5-carboxamide], which IC50 is on record?
Answer: The IC50 was 1.6 ± 0.4 nM.
